Results from patent US6566403B1 (priority 1997, dated 2003).
Where two headings read alike, the source gives them in different places.

Columns and labels:
[1] = system: Pythium ultimum; test: Fungitoxicity assay against Pythium ultimum (mycelial dry weight, liquid broth); format: cell-based; settings: for Relative Effectiveness against Pythium ultimum: EC50 of racemic mixture divided by EC50 of the enantiomer, growth 48 hours at 25° C.
Procedure: (§1) A series of dilutions of each test compound was prepared in dimethyl sulfoxide, and 0.1 ml of each dilution was added to 19.9 ml of a liquid asparagine-sucrose broth (Erwin, D. C. and Katznelson, K., 1971, Can. J. Microbiol. 7, 15) in 9 cm diameter petri dishes to give the desired concentrations of test compound in the medium. Each plate was inoculated with a mycelial plug, 7 mm in diameter, taken from the growing edge of a culture of Pythium ultimum grown on potato dextrose agar. Two replicate plates were used for each treatment. The increase in mycelial dry weight was determined after growth for 48 hours at 25° C. with shaking on a gyrotary shaker at 60 rpm. Pythium EC50 values were calculated from dose response curves. As used herein, the terminology “EC50” means the concentration of test compound required to inhibit growth by 50% as compared to a control lacking the test compound.
(§2) In order to compare the activity of individual isomers with that of the corresponding racemic mixture, the relative effectiveness of each compound was calculated. As used herein, relative effectiveness means the EC50 value for a racemic mixture of the particular compound divided by the EC50 value for one enantiomer. The relative effectiveness of the racemic mixture itself is 1.0.

[2] = system: Botrytis cinerea; test: Fungitoxicity assay against Botrytis cinerea (colony diameter on agar); format: cell-based; settings: EC50 of racemic mixture divided by EC50 of the enantiomer; 48 hours at 25° C.
Procedure: A series of dilutions of each test compound was prepared in dimethyl sulfoxide and 125 microliters […] of each dilution was added to 25 ml of molten potato dextrose agar to give the desired concentrations of test compound. The mixtures were poured immediately into 9 cm diameter petri dishes. Each plate was inoculated with a 7 mm diameter mycelial plug taken from the growing edge of a 5 day old culture of B. cinerea grown on potato dextrose agar.
as §2

[3] = system: Plasmopara viticola; test: Grape Downy Mildew (GDM); format: in vivo; settings: grape plants, treated before inoculation, scored after 7-8 days
Procedure: (§3) Cultures of Plasmopara viticola were maintained on grape seedlings derived from tissue culture. Leaves with sporulating mildew were rinsed in water to obtain the desired concentration of spores. A DeVilbiss atomizer was used to apply a suspension of spores to fungicide-treated lower leaves of the grape plants. The plants were kept in a humidity cabinet at 100% relative humidity for 24 hours and then placed in a controlled temperature chamber at 25° C. for 7-8 days before scoring. Disease evaluations were recorded as percent disease control.

[4] = system: Botrytis cinerea; test: Gray Mold on Tomato-Curative (BOC); format: in vivo; settings: tomato plants, compound applied 2 days after inoculation
Procedure: Botrytis cinerea cultures were maintained on potato dextrose agar. A dextrose solution was used to wash spores from sporulating cultures. A DeVilbiss atomizer was used to apply the resulting spore suspension to tomato plants. The plants were placed in a humidity cabinet at 100% relative humidity, and the test compound was applied to the plants after 2 days. The plants were returned to the humidity cabinet for a further 3-5 days before scoring. Disease evaluations were recorded as percent disease control.

[5] = system: Plasmopara viticola; test: Grape Downy Mildew-Curative (GDC); format: in vivo; settings: compound applied two days after inoculation
Procedure: as §3
The curative properties of the test compounds were evaluated using the same procedure as that set forth above in the section entitled “GRAPE DOWNY MILDEW”, except that the test compound was applied to the plants two days after inoculation with the pathogen.

[6] = system: Phytophthora capsici; test: Fungitoxicity assay against Phytophthora capsici (mycelial dry weight, liquid broth); format: cell-based; settings: EC50 of racemic mixture divided by EC50 of the enantiomer; growth 96 h
Procedure: as §1
The procedure described above for Pythium ultimum was used except that the mycelial plugs used for inoculation were taken from the growing edge of cultures of Phytophthora capsici grown on V-8 juice agar, pH 7.0, containing 200 ml V-8 juice, 4 g CaCO3, and 20 g agar per liter, and the increase in mycelial dry weight was determined after growth for 96 h.
as §2

[7] = system: Phytophthora infestans; format: in vivo; settings: tomato, compound applied two days after inoculation
[8] = system: Phytophthora infestans; format: in vivo; settings: tomato seedlings, treated before inoculation, 6 days after inoculation

Row | Structure (SMILES) | Relative Effectiveness against Pythium ultimum [1] | Relative Effectiveness against Botrytis cinerea [2] | GDM percent disease control ([3]; 19 ppm) | GDM percent disease control ([3]; 75 ppm) | GDM percent disease control ([3]; 300 ppm) | BOC percent disease control ([4]; 19 ppm) | BOC percent disease control ([4]; 75 ppm) | BOC percent disease control ([4]; 300 ppm) | GDC percent disease control ([5]; 19 ppm) | GDC percent disease control ([5]; 75 ppm) | GDC percent disease control ([5]; 300 ppm) | Relative Effectiveness against Phytophthora capsici [6] | TLC percent disease control ([7]; 19 ppm) | TLC percent disease control ([7]; 75 ppm) | TLC percent disease control ([7]; 300 ppm) | TLB percent disease control ([8]; 19 ppm) | TLB percent disease control ([8]; 75 ppm) | TLB percent disease control ([8]; 300 ppm) | also measured
1 | CC[C@](C)(NC(=O)c1cc(Cl)cc(Cl)c1)C(=O)CCl [Compound 2, S enantiomer] | 2.68 | 1.85 | – | – | – | – | – | – | – | – | – | – | – | – | – | – | – | – | –
2 | CC[C@](C)(NC(=O)c1cc(Cl)c(C)c(Cl)c1)C(=O)CCl [Compound 1, S enantiomer, (S)-N-(3-chloro-1-ethyl-1-methyl-2-oxopropyl)-3,5-dichloro-4-methylbenzamide] | 2.18 | 2.03 | 99% | 100% | 100% | 75% | 90% | 95% | 75% | 90% | 99% | 2.13 | 90% | 99% | 95% | 90% | 100% | 100% | –
3 | CC[C@@](C)(NC(=O)c1cc(Cl)c(C)c(Cl)c1)C(=O)CCl [Compound 1, R enantiomer, (R)-N-(3-chloro-1-ethyl-1-methyl-2-oxopropyl)-3,5-dichloro-4-methylbenzamide] | 0.037 | <0.076 | 0% | 0% | 0% | 0% | 0% | 0% | 0% | 0% | 0% | 0.0072 | 0% | 0% | 0% | 25% | 50% | 75% | –
4 | CC[C@@](C)(NC(=O)c1cc(Cl)cc(Cl)c1)C(=O)CCl [Compound 2, R enantiomer] | 0.055 | 0.17 | – | – | – | – | – | – | – | – | – | – | – | – | – | – | – | – | –
5 | CCC(C)(NC(=O)c1cc(Cl)c(C)c(Cl)c1)C(=O)CCl (racemic) [Compound 1, racemate] | 1.00 | 1.00 | 99% | 100% | 100% | 50% | 75% | 90% | 50% | 50% | 90% | 1.00 | 80% | 90% | 95% | 85% | 100% | 95% | –
6 | CCC(C)(NC(=O)c1cc(Cl)cc(Cl)c1)C(=O)CCl (racemic) [Compound 2, racemate] | 1.00 | 1.00 | – | – | – | – | – | – | – | – | – | – | – | – | – | – | – | – | –
7 | CCC(C)(NC(=O)c1cc(Cl)c(C)c(Cl)c1)C(=O)CCl (stereo not drawn) [Compound 1] | – | – | – | – | – | – | – | – | – | – | – | – | – | – | – | – | – | – | Relative Effectiveness (expected) against Pythium ultimum ([1]; 50 % S in the Mixture of racemate and S enantiomer): 1.000; Relative Effectiveness (expected) against Pythium ultimum ([1]; 60 % S in the Mixture of racemate and S enantiomer): 1.236; Relative Effectiveness (expected) against Pythium ultimum ([1]; 70 % S in the Mixture of racemate and S enantiomer): 1.472; Relative Effectiveness (expected) against Pythium ultimum ([1]; 80 % S in the Mixture of racemate and S enantiomer): 1.708; Relative Effectiveness (expected) against Pythium ultimum ([1]; 90 % S in the Mixture of racemate and S enantiomer): 1.944; Relative Effectiveness (expected) against Pythium ultimum ([1]; 100 % S in the Mixture of racemate and S enantiomer): 2.180
